As usually defined, the IC50 is the concentration needed to halve the response being measured. A higher IC50 goes with lower potency.

The results in this text go back to patent publication US9593136B2 (priority 2011, dated 2017).

The target in one test is M. tuberculosis Dxr (Mycobacterium tuberculosis, UniProt P9WNS1). Put plainly: biochemical.
The subject of another test is Mtb H37Rv (ATCC 27294). The test is described as follows: microbe, parasite or virus in culture. It counts as cell-based, Mycobacterium tuberculosis. As to conditions: for MIC: Mycobacterium tuberculosis.
For the next test, the system named is Acinetobacter. The test is described as follows: microbe, parasite or virus in culture. The test is classed as cell-based.
For a further test, the system named is E. coli k12. The test is described as follows: microbe, parasite or virus in culture. It counts as cell-based.
For a further test, the system named is E. coli tolc. The test is described as follows: microbe, parasite or virus in culture. It counts as cell-based.
Another test relates to E. faecalis. The test is described as follows: microbe, parasite or virus in culture. It counts as cell-based.
In a further test the test system is MRSA NRS 70. Put plainly: microbe, parasite or virus in culture. The test is classed as cell-based, S. aureus.
Another test has as its system S. aureus (MSSA). Put plainly: microbe, parasite or virus in culture. It counts as cell-based.
For the next test, the system named is B. anthracis. The test is described as follows: microbe, parasite or virus in culture. It counts as cell-based, Bacillus anthracis.
[1] abbreviates: read-out: Mtb MIC (ug/mL) (7H9).
Where [2] appears, read: read-out: Mtb MIC (ug/mL) (GAST).

In brackets after ≈: the same amount, converted by molar mass. Read-outs that look alike come from different tables or passages of the source. Where only a bound is given, the exact number is not on record here.

Sequence of M. tuberculosis Dxr (P9WNS1 whole entry, looked up): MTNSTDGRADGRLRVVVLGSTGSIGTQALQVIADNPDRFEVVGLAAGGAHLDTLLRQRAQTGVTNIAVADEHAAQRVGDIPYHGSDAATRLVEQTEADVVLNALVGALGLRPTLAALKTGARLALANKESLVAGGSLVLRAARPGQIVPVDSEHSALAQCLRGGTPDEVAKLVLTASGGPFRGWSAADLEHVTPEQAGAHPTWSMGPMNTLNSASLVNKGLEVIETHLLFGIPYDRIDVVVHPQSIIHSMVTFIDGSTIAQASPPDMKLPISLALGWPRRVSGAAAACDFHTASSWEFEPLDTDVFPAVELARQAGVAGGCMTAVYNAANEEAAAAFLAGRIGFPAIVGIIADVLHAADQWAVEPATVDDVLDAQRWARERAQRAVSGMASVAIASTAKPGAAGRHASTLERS

Regarding `CC(=O)N(CCCP(=O)(O)O)OCCc1ccccc1` [GSJ78], the IC50 on M. tuberculosis Dxr (Mtb Dxr IC50 (ug/mL)) was 103 µM. Moreover, in the test with Mtb H37Rv (ATCC 27294) (read-out: Mtb MIC (ug/mL)), the MIC is greater than 200 µg/mL.
For the molecule `O=C(C1CCCCC1)N(O)CCCP(=O)(O)O` [Compound 9, Sodium hydrogen 3-(N-hydroxycyclohexanecarboxamido)propylphosphonate], half-maximal inhibition at M. tuberculosis Dxr (IC50 (μM)) (IC50) was put at 57.8 µM. In other words, the double-digit micromolar range.
Turning to `CCOP(=O)(CCCN(OCc1cc(OC)cc(OC)c1)C(C)=O)OCC` [GSJ111], the MIC in the test on Mtb H37Rv (ATCC 27294) (read-out: Mtb MIC (ug/mL)) was greater than 400 µg/mL.
Regarding `CCOP(=O)(CCCN(OCc1ccc(Br)cc1)C(C)=O)OCC` [GSJ113], in the test on Mtb H37Rv (ATCC 27294) (read-out: Mtb MIC (ug/mL)), the MIC stood at 400 µg/mL (≈ 947 µM).
As for `O=C(CCc1ccccc1)N(O)CCCP(=O)(O)O` [GSJ 51], the IC50 on M. tuberculosis Dxr (IC50 (uM)) is 2.72 µM; on M. tuberculosis Dxr (IC50 (ug/ml)), 2.92 µM; against M. tuberculosis Dxr (Mtb Dxr IC50 (ug/mL)) it was 2.92 µM. The MIC in the test on Mtb H37Rv (ATCC 27294) (read-out: Mtb MIC (ug/mL)) was greater than 200 µg/mL.
Turning to `O=C(CCCc1ccccc1)N(O)CCCP(=O)(O)O` [GSJ 52], the IC50 against M. tuberculosis Dxr (IC50 (uM)) is 3.12 µM; against M. tuberculosis Dxr (IC50 (ug/ml)), 3.35 µM; against M. tuberculosis Dxr (Mtb Dxr IC50 (ug/mL)) it was 3.35 µM. Further, the MIC in the test with Mtb H37Rv (ATCC 27294) (read-out: Mtb MIC (ug/mL)) was greater than 200 µg/mL.
In the case of `O=C(C1CC1)N(O)CCCP(=O)([O-])O.[Na+]` [ERJ 123], in the test with Mtb H37Rv (ATCC 27294) (read-out: Mtb MIC (ug/mL)), the MIC was greater than 400 µg/mL.
The molecule `O=C(CCCc1ccccc1)N(O)CCCP(=O)(O)O` [Compound 8, Sodium hydrogen 3-(N-hydroxy-4-phenylbutanamido)propylphosphonate] returned an IC50 against M. tuberculosis Dxr (IC50 (μM)) of 3.1 µM.
The same measure, in the same setting: the value for `O=C(Cc1ccccc1)N(O)CCCP(=O)(O)O` [Compound 7, Sodium hydrogen 3-(N-hydroxy-2-phenylacetamido)propylphosphonate] was 7.5 µM.
On to `CCOP(=O)(CCCN(OCc1ccc(Cl)c(Cl)c1)C(C)=O)OCC` [GSJ102], for which the MIC in the test with Mtb H37Rv (ATCC 27294) (read-out: Mtb MIC (ug/mL)) came out at 200 µg/mL (≈ 485 µM).
Take `CCOP(=O)(CCCN(OCc1ccc(OC(F)(F)F)cc1)C(C)=O)OCC` [GSJ110]: the MIC in the test with Mtb H37Rv (ATCC 27294) (read-out: Mtb MIC (ug/mL)) was found to be 400 µg/mL (≈ 936 µM).
The same measure, in the same setting: the value for `CCOP(=O)(CCCN(OCc1cccc2ccccc12)C(C)=O)OCC` [GSJ116] was 400 µg/mL (≈ 1020 µM); that for `CCOP(=O)(CCCN(OCc1cccc(OC(F)(F)F)c1)C(C)=O)OCC` [GSJ109] was 400 µg/mL (≈ 936 µM).
Consider `CCOP(=O)(CCCN(OCCc1ccc(C)cc1)C(C)=O)OCC` [GSJ82], for which the MIC with Mtb H37Rv (ATCC 27294) (setting [1]) was no less than 400 µg/mL.
Consider `CC(=O)N(O)CCCCP(=O)(O)O` [GSJ54], for which the IC50 on M. tuberculosis Dxr (Mtb Dxr IC50 (ug/mL)) was 13.2 µM. In the test on Mtb H37Rv (ATCC 27294) (read-out: Mtb MIC (ug/mL)), the MIC is greater than 200 µg/mL.
Consider `CCOP(=O)(CCCN(O)C(=O)C1CCCCC1)OCC` [ERJ 112], for which the MIC is greater than 200 µg/mL in the test with Mtb H37Rv (ATCC 27294) (setting [1]) and 100 µg/mL (≈ 311 µM) in the test on Mtb H37Rv (ATCC 27294) (setting [2]).
Take `CCOP(=O)(CCCN(OCc1ccc(-c2ccccc2C(=O)OC)cc1)C(C)=O)OCC` [GSJ112]: the MIC with Mtb H37Rv (ATCC 27294) (read-out: Mtb MIC (ug/mL)) came to 400 µg/mL (≈ 838 µM).
Consider `CC(=O)N(O)CCCP(=O)(OCC(=O)OC(C)(C)C)OCC(=O)OC(C)(C)C` [Compound 23], for which the “MIC Acinetobacter” value in the test with Acinetobacter is greater than 200 µg/mL. In the test on E. coli k12, the “MIC E. coli k12” value was greater than 200 µg/mL. In addition, the “MIC E. coli tolc” value with E. coli tolc is greater than 200 µg/mL. The “MIC E. faecalis” value in the test on E. faecalis is greater than 200 µg/mL. For the same molecule, in the test on MRSA NRS 70, the “MIC S. aureus (MRSA)” value was 25 µg/mL (≈ 58.8 µM). The “MIC S. aureus (MSSA)” value against S. aureus (MSSA) is 100 µg/mL (≈ 235 µM). In the test on Mtb H37Rv (ATCC 27294), the “MIC M. tuberculosis (H37Rv)” value amounted to 400 µg/mL (≈ 940 µM). In the test on B. anthracis, the “MIC B. anthracis” value is greater than 200 µg/mL.
On to `CC(=O)N(O)CCCP(=O)(OC(C)OC(=O)OC(C)(C)C)OC(C)OC(=O)OC(C)(C)C` (stereo not shown) [Compound 25], for which the “MIC Acinetobacter” value with Acinetobacter was greater than 200 µg/mL. In addition, the “MIC E. coli k12” value in the test with E. coli k12 was greater than 200 µg/mL. Also, in the test on E. coli tolc, the “MIC E. coli tolc” value was greater than 200 µg/mL. Also, the “MIC E. faecalis” value against E. faecalis is greater than 200 µg/mL. Also, in the test with MRSA NRS 70, the “MIC S. aureus (MRSA)” value worked out at 50 µg/mL (≈ 103 µM). For the same molecule, the “MIC S. aureus (MSSA)” value against S. aureus (MSSA) was determined as 100 µg/mL (≈ 206 µM). Also, in the test with Mtb H37Rv (ATCC 27294), the “MIC M. tuberculosis (H37Rv)” value came to 400 µg/mL (≈ 824 µM). In addition, the “MIC B. anthracis” value with B. anthracis was determined as 200 µg/mL (≈ 412 µM).
On to `CCOP(=O)(CCCN(OCC1CCCCC1)C(C)=O)OCC` [GSJ71], for which the MIC was no less than 400 µg/mL with Mtb H37Rv (ATCC 27294) (setting [1]) and 200 to 400 µg/mL (≈ 572 to 1140 µM) with Mtb H37Rv (ATCC 27294) (setting [2]).
Turning to `CCOP(=O)(CCCN(OCc1cccc(-c2ccccc2)c1)C(C)=O)OCC` [GSJ100], in the test on Mtb H37Rv (ATCC 27294) (read-out: Mtb MIC (ug/mL)), the MIC was 100 µg/mL (≈ 238 µM).
With `CC(=O)N(CCCP(=O)(O)O)OC(C)c1ccccc1` (stereo not shown) [GSJ 63], the IC50 was 161 µM on M. tuberculosis Dxr (IC50 (uM)), 173 µM against M. tuberculosis Dxr (IC50 (ug/ml)) and 173 µM on M. tuberculosis Dxr (Mtb Dxr IC50 (ug/mL)). Moreover, the MIC in the test with Mtb H37Rv (ATCC 27294) (read-out: Mtb MIC (ug/mL)) was greater than 200 µg/mL.
Regarding `CC(=O)N(CCCP(=O)(OCOC(=O)C(C)(C)C)OCOC(=O)C(C)(C)C)OCc1ccc(-c2ccccc2)cc1` [GSJ97], in the test with Mtb H37Rv (ATCC 27294) (read-out: Mtb MIC (ug/mL)), the MIC is 12.5 µg/mL (≈ 21.1 µM).
The molecule `CC(=O)N(CCCP(=O)(O)O)OCc1ccc2ccccc2c1` [GSJ77] gave an IC50 against M. tuberculosis Dxr (Mtb Dxr IC50 (ug/mL)) of 47.7 µM. Besides, the MIC with Mtb H37Rv (ATCC 27294) (read-out: Mtb MIC (ug/mL)) was no less than 200 µg/mL.
Take `CC(=O)N(CCCP(=O)(OCOC(=O)c1ccccc1)OCOC(=O)c1ccccc1)OCCCCc1ccccc1` [GSJ92]: the MIC with Mtb H37Rv (ATCC 27294) (setting [1]) was 25 µg/mL (≈ 41.8 µM).
Take `CCOP(=O)(CCCN(OCc1ccc(C(C)C)cc1)C(C)=O)OCC` [GSJ70]: the MIC with Mtb H37Rv (ATCC 27294) (setting [1]) worked out at 400 µg/mL (≈ 1040 µM); with Mtb H37Rv (ATCC 27294) (setting [2]) it was 200 µg/mL (≈ 519 µM).
